Measured values as given in patent US12415834B2, “GhR-binding peptide and composition comprising same” (priority 2021, dated 2025).
Where two headings read alike, the source gives them in different places. Starred links: 1 amine or outer side, 2 acyl side, 3 side chain; linkers in the order of their positions; H or OH if unused. Positions of bridges follow the written chain, without caps; N, C: chain ends. Non-standard residues stand in square brackets, D forms with d. Residues, ends and D or L forms follow the SMILES beside them. Groups on a side chain read outwards from the residue. *: point of attachment. X11 = NC(=O)[C@H](CCCCN*)NC(=O)CC[C@H](NC(=O)CC[C@H](NC(=O)CCCCCCCCCCCCCCCC(=O)O)C(=O)O)C(=O)O; X20 = CC(=O)N[C@@H](CCC(=O)N[C@@H](CCC(=O)N[C@@H](CCCCN*)C(N)=O)C(=O)O)C(=O)O; Trp(1-CH2CO) = O=C([C@H](Cc1cn(CC(=O)[*:3])c2ccccc12)N[*:1])[*:2]; Trp(5-OMe) = COc1ccc2[nH]cc(C[C@H](N)C(=O)O)c2c1; Butanoyl(4-(4-I-phenyl)) = O=C(CCCc1ccc(I)cc1)*; Trp(5-OH) = N[C@@H](Cc1c[nH]c2ccc(O)cc12)C(=O)O; Phe(4-COOH) = N[C@@H](Cc1ccc(C(=O)O)cc1)C(=O)O; Piperazinyl(4-CH2COOH) = O=C(O)CN1CCN(*)CC1; X7 = O=C(O)CN1CCC(N[*:1])(C(=O)[*:2])CC1; γGlu = O=C(O)[C@H](CCC(=O)[*:2])N[*:1]; Hexanoyl(6-Ph) = O=C(CCCCCc1ccccc1)*; X9 = O=C(CCCc1ccc(-c2ccccc2)cc1)*; NMeK = CN[C@@H](CCCCN)C(=O)O; Aib = CC(C)(N)C(=O)O; CO = O=C([*:1])[*:2]

Target: T1, Recombinant human GhR-Fc protein (Homo sapiens, UniProt P10912)
T1 construct: purchased R&D Systems
T1 sequence (P10912 with tags, fused parts or gaps limits assumed): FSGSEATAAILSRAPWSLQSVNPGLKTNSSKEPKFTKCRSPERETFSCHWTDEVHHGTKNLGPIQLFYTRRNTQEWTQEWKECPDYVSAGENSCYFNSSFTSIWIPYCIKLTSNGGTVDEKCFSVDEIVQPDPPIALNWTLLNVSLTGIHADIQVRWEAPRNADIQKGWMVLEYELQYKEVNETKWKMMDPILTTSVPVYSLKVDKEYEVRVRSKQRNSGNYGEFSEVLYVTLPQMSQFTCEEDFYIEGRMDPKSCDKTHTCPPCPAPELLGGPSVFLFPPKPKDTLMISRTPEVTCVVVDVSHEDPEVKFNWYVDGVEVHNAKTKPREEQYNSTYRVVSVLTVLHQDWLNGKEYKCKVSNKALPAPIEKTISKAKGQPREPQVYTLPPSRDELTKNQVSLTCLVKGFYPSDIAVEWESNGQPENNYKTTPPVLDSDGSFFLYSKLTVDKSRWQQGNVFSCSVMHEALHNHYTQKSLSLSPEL
Assay: SPR binding assay (Biacore T200, single-cycle kinetics) of peptides against immobilized human GhR-Fc
How it was run: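 Human GhR-Fc amine-coupled to a CM5 chip at pH 4.0; running buffer HBS-EP with 1% DMSO. Peptides measured by single-cycle kinetics on Biacore T200, with solvent correction and baseline subtraction. KD calculated from fitted ka and kd.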

[1] = SPR, hGhR, Table 2 monocyclic peptides, KD calculated from ka and kd, read-out: KD
[2] = SPR, hGhR, Table 1 bicyclic peptides, KD calculated from ka and kd, read-out: KD

COc1ccc2[nH]cc(C[C@@H]3NC(=O)[C@H](CC(N)=O)NC(=O)[C@H](CO)NC(=O)[C@H](C(C)C)NC(=O)[C@H](C(C)C)NC(=O)[C@H](CCCCNC(=O)CC[C@H](NC(=O)CC[C@H](NC(=O)CCCc4ccc(I)cc4)C(=O)O)C(=O)O)N(C)C(=O)[C@H](Cc4ccc(C(=O)O)cc4)NC(=O)CSC[C@@H](C(=O)NCC(=O)N4CCC[C@H]4C(=O)N[C@H](CO)C(=O)N[C@H](CO)C(=O)N[C@H](CO)C(N)=O)NC(=O)[C@H](C(C)C)NC(=O)C(C)(C)NC(=O)[C@H](Cc4c[nH]c5ccc(O)cc45)NC(=O)[C@H](CCCCN)NC(=O)[C@H](Cc4ccc(C(=O)O)cc4)NC3=O)c2c1 [Compound 42] ({CH2CO}-[Phe(4-COOH)][NMeK]([γGlu-γGlu-Butanoyl(4-(4-I-phenyl))])VVSN[Trp(5-OMe)][Phe(4-COOH)]K[Trp(5-OH)][Aib]VCGP[dS][dS][dS]-NH2; thioether N-13)
Kd [1]: 3.79 nM

COc1ccc2[nH]cc(C[C@@H]3NC(=O)[C@H](CC(N)=O)NC(=O)[C@H](CO)NC(=O)[C@H](C(C)C)NC(=O)[C@H](C(C)C)NC(=O)[C@H](CCCCNC(=O)CC[C@H](NC(=O)CCCc4ccc(I)cc4)C(=O)O)N(C)C(=O)[C@H](Cc4ccc(O)cc4)NC(=O)CSC[C@@H](C(N)=O)NC(=O)[C@H](C(C)C)NC(=O)C(C)(C)NC(=O)[C@H](Cc4c[nH]c5ccc(O)cc45)NC(=O)[C@H](CCCCNC(=O)N4CCN(CC(=O)O)CC4)NC(=O)[C@H](Cc4ccc(O)cc4)NC3=O)c2c1 [Compound 44] ({CH2CO}-Y[NMeK]([γGlu-Butanoyl(4-(4-I-phenyl))])VVSN[Trp(5-OMe)]YK([CO-Piperazinyl(4-CH2COOH)])[Trp(5-OH)][Aib]VC-NH2; thioether N-13)
Kd [1]: 9.67 nM

COc1ccc2[nH]cc(C[C@@H]3NC(=O)[C@H](CC(N)=O)NC(=O)[C@H](CO)NC(=O)[C@H](C(C)C)NC(=O)[C@H](C(C)C)NC(=O)[C@H](CCCCNC(=O)CC[C@H](NC(=O)CC[C@H](NC(=O)CCCc4ccc(I)cc4)C(=O)O)C(=O)O)N(C)C(=O)[C@H](Cc4ccc(O)cc4)NC(=O)CSC[C@@H](C(N)=O)NC(=O)[C@H](C(C)C)NC(=O)C(C)(C)NC(=O)[C@H](Cc4c[nH]c5ccc(O)cc45)NC(=O)[C@H](CCCCNC(=O)N4CCN(CC(=O)O)CC4)NC(=O)[C@H](Cc4ccc(C(=O)O)cc4)NC3=O)c2c1 [Compound 47] ({CH2CO}-Y[NMeK]([γGlu-γGlu-Butanoyl(4-(4-I-phenyl))])VVSN[Trp(5-OMe)][Phe(4-COOH)]K([CO-Piperazinyl(4-CH2COOH)])[Trp(5-OH)][Aib]VC-NH2; thioether N-13)
Kd [1]: 7.38 nM

COc1ccc2[nH]cc(C[C@@H]3NC(=O)[C@H](CC(N)=O)NC(=O)[C@H](CO)NC(=O)[C@H](C(C)C)NC(=O)[C@H](C(C)C)NC(=O)[C@H](CCCCNC(=O)CC[C@H](NC(=O)CC[C@H](NC(=O)CCCc4ccc(I)cc4)C(=O)O)C(=O)O)N(C)C(=O)[C@H](Cc4ccc(O)cc4)NC(=O)CSC[C@@H](C(N)=O)NC(=O)[C@H](C(C)C)NC(=O)C4(CCN(CC(=O)O)CC4)NC(=O)[C@H](Cc4c[nH]c5ccc(O)cc45)NC(=O)[C@H](CCCCN)NC(=O)[C@H](Cc4ccc(C(=O)O)cc4)NC3=O)c2c1 [Compound 50] ({CH2CO}-Y[NMeK]([γGlu-γGlu-Butanoyl(4-(4-I-phenyl))])VVSN[Trp(5-OMe)][Phe(4-COOH)]K[Trp(5-OH)][X7]VC-NH2; thioether N-13)
Kd [1]: 4.13 nM

COc1ccc2[nH]cc(C[C@@H]3NC(=O)[C@H](CC(N)=O)NC(=O)[C@H](CO)NC(=O)[C@H](C(C)C)NC(=O)[C@H](C(C)C)NC(=O)[C@H](CCCCNC(=O)CC[C@H](NC(=O)CCCc4ccc(I)cc4)C(=O)O)N(C)C(=O)[C@H](Cc4ccc(O)cc4)NC(=O)CSC[C@@H](C(=O)NCC(=O)N4CCC[C@H]4C(=O)N[C@H](CO)C(=O)N[C@H](CO)C(=O)N[C@H](CO)C(N)=O)NC(=O)[C@H](C(C)C)NC(=O)C4(CCN(CC(=O)O)CC4)NC(=O)[C@H](Cc4c[nH]c5ccc(O)cc45)NC(=O)[C@H](CCCCN)NC(=O)[C@H](Cc4ccc(C(=O)O)cc4)NC3=O)c2c1 [Compound 51] ({CH2CO}-Y[NMeK]([γGlu-Butanoyl(4-(4-I-phenyl))])VVSN[Trp(5-OMe)][Phe(4-COOH)]K[Trp(5-OH)][X7]VCGP[dS][dS][dS]-NH2; thioether N-13)
Kd [1]: 7.57 nM

COc1ccc2[nH]cc(C[C@@H]3NC(=O)[C@H](CC(N)=O)NC(=O)[C@H](CO)NC(=O)[C@H](C(C)C)NC(=O)[C@H](C(C)C)NC(=O)[C@H](CCCCNC(=O)CC[C@H](NC(=O)CC[C@H](NC(=O)CCCc4ccc(I)cc4)C(=O)O)C(=O)O)N(C)C(=O)[C@H](Cc4ccc(O)cc4)NC(=O)CSC[C@@H](C(N)=O)NC(=O)[C@H](C(C)C)NC(=O)C(C)(C)NC(=O)[C@H](Cc4c[nH]c5ccc(O)cc45)NC(=O)[C@H](CCCCN)NC(=O)[C@H](Cc4ccc(C(=O)O)cc4)NC3=O)c2c1 [Compound 53] ({CH2CO}-Y[NMeK]([γGlu-γGlu-Butanoyl(4-(4-I-phenyl))])VVSN[Trp(5-OMe)][Phe(4-COOH)]K[Trp(5-OH)][Aib]VC-NH2; thioether N-13)
Kd [1]: 3.36 nM

COc1ccc2[nH]cc(C[C@@H]3NC(=O)[C@H](CC(N)=O)NC(=O)[C@H](CO)NC(=O)[C@H](C(C)C)NC(=O)[C@H](C(C)C)NC(=O)[C@H](CCCCNC(=O)CC[C@H](NC(=O)CCCc4ccc(I)cc4)C(=O)O)N(C)C(=O)[C@H](Cc4ccc(O)cc4)NC(=O)CSC[C@@H](C(=O)NCC(=O)N4CCC[C@H]4C(=O)N[C@H](CO)C(=O)N[C@H](CO)C(=O)N[C@H](CO)C(N)=O)NC(=O)[C@H](C(C)C)NC(=O)C(C)(C)NC(=O)[C@H](Cc4c[nH]c5ccc(O)cc45)NC(=O)[C@H](CCCCN)NC(=O)[C@H](Cc4ccc(C(=O)O)cc4)NC3=O)c2c1 [Compound 54] ({CH2CO}-Y[NMeK]([γGlu-Butanoyl(4-(4-I-phenyl))])VVSN[Trp(5-OMe)][Phe(4-COOH)]K[Trp(5-OH)][Aib]VCGP[dS][dS][dS]-NH2; thioether N-13)
Kd [1]: 2.08 nM

COc1ccc2[nH]cc(C[C@@H]3NC(=O)[C@H](CC(N)=O)NC(=O)[C@H](CO)NC(=O)[C@H](C(C)C)NC(=O)[C@H](C(C)C)NC(=O)[C@H](CCCCNC(=O)CC[C@H](NC(=O)CC[C@H](NC(=O)CCCc4ccc(I)cc4)C(=O)O)C(=O)O)N(C)C(=O)[C@H](Cc4ccc(O)cc4)NC(=O)CSC[C@@H](C(=O)NCC(=O)N4CCC[C@H]4C(=O)N[C@H](CO)C(=O)N[C@H](CO)C(=O)N[C@H](CO)C(N)=O)NC(=O)[C@H](C(C)C)NC(=O)C(C)(C)NC(=O)[C@H](Cc4c[nH]c5ccc(O)cc45)NC(=O)[C@H](CCCCN)NC(=O)[C@H](Cc4ccc(C(=O)O)cc4)NC3=O)c2c1 [Compound 55] ({CH2CO}-Y[NMeK]([γGlu-γGlu-Butanoyl(4-(4-I-phenyl))])VVSN[Trp(5-OMe)][Phe(4-COOH)]K[Trp(5-OH)][Aib]VCGP[dS][dS][dS]-NH2; thioether N-13)
Kd [1]: 2.83 nM

COc1ccc2[nH]cc(C[C@@H]3NC(=O)[C@H](CC(N)=O)NC(=O)[C@H](CO)NC(=O)[C@H](C(C)C)NC(=O)[C@H](C(C)C)NC(=O)[C@H](CCCCNC(=O)CC[C@H](NC(=O)CCCc4ccc(-c5ccccc5)cc4)C(=O)O)N(C)C(=O)[C@H](Cc4ccc(O)cc4)NC(=O)CSC[C@@H](C(=O)NCC(=O)N4CCC[C@H]4C(=O)N[C@H](CO)C(=O)N[C@H](CO)C(=O)N[C@H](CO)C(N)=O)NC(=O)[C@H](C(C)C)NC(=O)C(C)(C)NC(=O)[C@H](Cc4c[nH]c5ccc(O)cc45)NC(=O)[C@H](CCCCN)NC(=O)[C@H](Cc4ccc(C(=O)O)cc4)NC3=O)c2c1 [Compound 56] ({CH2CO}-Y[NMeK]([γGlu-X9])VVSN[Trp(5-OMe)][Phe(4-COOH)]K[Trp(5-OH)][Aib]VCGP[dS][dS][dS]-NH2; thioether N-13)
Kd: 2.87 nM

COc1ccc2[nH]cc(C[C@@H]3NC(=O)[C@H](CC(N)=O)NC(=O)[C@H](CO)NC(=O)[C@H](C(C)C)NC(=O)[C@H](C(C)C)NC(=O)[C@H](CCCCNC(=O)CC[C@H](NC(=O)CCCCCc4ccccc4)C(=O)O)N(C)C(=O)[C@H](Cc4ccc(O)cc4)NC(=O)CSC[C@@H](C(=O)NCC(=O)N4CCC[C@H]4C(=O)N[C@H](CO)C(=O)N[C@H](CO)C(=O)N[C@H](CO)C(N)=O)NC(=O)[C@H](C(C)C)NC(=O)C(C)(C)NC(=O)[C@H](Cc4c[nH]c5ccc(O)cc45)NC(=O)[C@H](CCCCN)NC(=O)[C@H](Cc4ccc(C(=O)O)cc4)NC3=O)c2c1 [Compound 57] ({CH2CO}-Y[NMeK]([γGlu-Hexanoyl(6-Ph)])VVSN[Trp(5-OMe)][Phe(4-COOH)]K[Trp(5-OH)][Aib]VCGP[dS][dS][dS]-NH2; thioether N-13)
Kd [1]: 1.25 nM

CC(=O)N[C@@H](CCC(=O)N[C@@H](CCC(=O)N[C@@H](CCCCNC(=O)[C@@H]1CSCC(=O)N[C@@H](Cc2ccc(C(=O)O)cc2)C(=O)N(C)[C@H]2CCCCNC(=O)Cn3cc(c4ccccc43)C[C@H](NC(=O)[C@H](CC(N)=O)NC(=O)[C@H](CO)NC(=O)[C@H](C(C)C)NC(=O)[C@H](C(C)C)NC2=O)C(=O)N[C@@H](Cc2ccc(C(=O)O)cc2)C(=O)N[C@@H](CCCCN)C(=O)N[C@@H](Cc2c[nH]c3ccc(O)cc23)C(=O)NC(C)(C)C(=O)N[C@@H](C(C)C)C(=O)N1)C(N)=O)C(=O)O)C(=O)O [Compound 58] ({CH2CO}-[Phe(4-COOH)][NMeK]VVSN[Trp(1-CH2CO)][Phe(4-COOH)]K[Trp(5-OH)][Aib]VC-X20; lactam 2-7; thioether N-13)
Kd [2]: 3.51 nM

CC(C)[C@@H]1NC(=O)[C@H](C(C)C)NC(=O)[C@@H]2CCCCNC(=O)Cn3cc(c4ccccc43)C[C@H](NC(=O)[C@H](CC(N)=O)NC(=O)[C@H](CO)NC1=O)C(=O)N[C@@H](Cc1ccc(C(=O)O)cc1)C(=O)N[C@@H](CCCCN)C(=O)N[C@@H](Cc1c[nH]c3ccc(O)cc13)C(=O)NC(C)(C)C(=O)N[C@@H](C(C)C)C(=O)N[C@H](C(=O)NCCCC[C@H](NC(=O)CC[C@H](NC(=O)CC[C@H](NC(=O)CCCCCCCCCCCCCCCC(=O)O)C(=O)O)C(=O)O)C(N)=O)CSCC(=O)N[C@@H](Cc1ccc(C(=O)O)cc1)C(=O)N2C [Compound 61] ({CH2CO}-[Phe(4-COOH)][NMeK]VVSN[Trp(1-CH2CO)][Phe(4-COOH)]K[Trp(5-OH)][Aib]VC-X11; lactam 2-7; thioether N-13)
Kd [2]: 2.53 nM
